The text below walks through data of patent publication US20250019387A1 (Frontier Medicines Corporation, priority 0001, published 2025).

Molecules are shown by their SMILES.

As usually defined, the IC50 is the concentration that gives 50% inhibition.

KRAS G12C and cRAF (Ras-binding domain) interaction, sequence (P01116 other isoform, or with tags, fused parts or gaps G12C/C51S/C80L/C118S): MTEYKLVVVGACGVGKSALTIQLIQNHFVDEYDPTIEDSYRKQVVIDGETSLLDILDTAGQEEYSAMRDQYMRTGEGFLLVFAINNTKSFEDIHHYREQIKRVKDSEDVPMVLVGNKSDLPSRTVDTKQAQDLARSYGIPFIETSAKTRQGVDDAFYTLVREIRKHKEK

This test concerns the target KRAS G12C and cRAF (Ras-binding domain) interaction (Homo sapiens (Human), UniProt P01116, C118S/C51S/C80L/G12C). Briefly: Inhibition of KRAS G12C and cRAF binding (AlphaScreen). Particulars: GMPPNP-loaded KRAS G12C, 19-20 hours incubation with compound; read-out: IC50 (Inhibition of KRAS G12C and cRAF Binding). A digest of the protocol:
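Compounds (DMSO) preincubated 19-20 h at room temperature, then RBD with streptavidin donor and glutathione acceptor beads added in 25 mM Hepes pH 7.4, 150 mM NaCl, 5 mM MgCl2, 0.01% Triton X-100, 2% DMSO for 60-90 min. Emission 570 nm (excitation 680 nm); IC50 by 4-parameter fit. Counter-screen used biotin-AviTag-GST instead of RBD.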
For orientation: In Alpha technology, singlet oxygen from a donor bead excites a nearby acceptor bead.
Consider `C=CS(=O)(=O)C1CCN(c2nc(OC[C@@H]3CCCN3C)nc3c2CCN(c2cccc4cccc(Cl)c24)C3)C1` (stereo partly drawn) [Example 51, 7-(8-chloronaphthalen-1-yl)-2-(((S)-1-methylpyrrolidin-2-yl)methoxy)-4-(3-(vinylsulfonyl)pyrrolidin-1-yl)-5,6,7,8-tetrahydropyrido[3,4-d]pyrimidine], for which the IC50 was more than 500 nM.

As for `CN(C)C/C=C/S(=O)(=O)CCN(C)c1nc(OC[C@@H]2CCCN2C)nc2c1CCN(c1cccc3cccc(Cl)c13)C2` [Example 52, (S,E)-7-(8-chloronaphthalen-1-yl)-N-(2-((3-(dimethylamino)prop-1-en-1-yl)sulfonyl)ethyl)-N-methyl-2-((1-methylpyrrolidin-2-yl)methoxy)-5,6,7,8-tetrahydropyrido[3,4-d]pyrimidin-4-amine], the IC50 is 10 to 100 nM.

With `CN(CCS(=O)(=O)/C=C/CN1CC(F)C1)c1nc(OC[C@@H]2CCCN2C)nc2c1CCN(c1cccc3cccc(Cl)c13)C2` [Example 53, 7-(8-chloro-1-naphthyl)-N-[2-[(E)-3-(3-fluoroazetidin-1-yl)prop-1-enyl]sulfonylethyl]-N-methyl-2-[[(2S)-1-methylpyrrolidin-2-yl]methoxy]-6,8-dihydro-5H-pyrido[3,4-d]pyrimidin-4-amine], the concentration for half-maximal inhibition (IC50) lay in the range of 100 to 500 nM.

On to `C/C=C/S(=O)(=O)CCN(C)c1nc(OCC23CCCN2CCC3)nc2c1CCN(c1cccc3cccc(Cl)c13)C2` [Example 54, (E)-7-(8-chloronaphthalen-1-yl)-2-((hexahydro-1H-pyrrolizin-7a-yl)methoxy)-N-methyl-N-(2-(prop-1-en-1-ylsulfonyl)ethyl)-5,6,7,8-tetrahydropyrido[3,4-d]pyrimidin-4-amine], for which the 50% inhibitory concentration (IC50) lay in the range of 100 to 500 nM.

In the case of `CCN(CC)C/C=C/S(=O)(=O)CCN(C)c1nc(OCC23CCCN2CCC3)nc2c1CCN(c1cccc3cccc(Cl)c13)C2` [Example 55, (E)-7-(8-chloronaphthalen-1-yl)-N-(2-((3-(diethylamino)prop-1-en-1-yl)sulfonyl)ethyl)-2-((hexahydro-1H-pyrrolizin-7a-yl)methoxy)-N-methyl-5,6,7,8-tetrahydropyrido[3,4-d]pyrimidin-4-amine], the IC50 is less than 10 nM.

Consider `CN(c1nc(OC[C@@]23CCCN2C[C@H](F)C3)nc2c(F)c(-c3cccc4cccc(Cl)c34)ncc12)[C@H]1CN(C(=O)/C=C/c2nc(C(C)(C)O)no2)C[C@@H]1F` [Example 56, (E)-1-((3S,4S)-3-((7-(8-chloronaphthalen-1-yl)-8-fluoro-2-(((2R,7aS)-2-fluorohexahydro-1H-pyrrolizin-7a-yl)methoxy)pyrido[4,3-d]pyrimidin-4-yl)(methyl)amino)-4-fluoropyrrolidin-1-yl)-3-(3-(2-hydroxypropan-2-yl)-1,2,4-oxadiazol-5-yl)prop-2-en-1-one], for which the IC50 fell in the range of 10 to 100 nM.

With `C=CC(=O)N1C[C@H](O)[C@@H](N(C)c2nc(OC[C@@]34CCCN3C[C@H](F)C4)nc3c(F)c(-c4cccc5cccc(Cl)c45)ncc23)C1` [Example 57, 1-((3S,4S)-3-((7-(8-chloronaphthalen-1-yl)-8-fluoro-2-(((2R,7aS)-2-fluorohexahydro-1H-pyrrolizin-7a-yl)methoxy)pyrido[4,3-d]pyrimidin-4-yl)(methyl)amino)-4-hydroxypyrrolidin-1-yl)prop-2-en-1-one], the IC50 lay within 100 to 500 nM.

As for `CN(c1nc(OC[C@@]23CCCN2C[C@H](F)C3)nc2c(F)c(-c3cccc4cccc(Cl)c34)ncc12)[C@@H]1CCN(C(=O)C#CC2CCNC2)C1` (stereo partly drawn) [Example 58, 1-((R)-3-((7-(8-chloronaphthalen-1-yl)-8-fluoro-2-(((2R,7aS)-2-fluorohexahydro-1H-pyrrolizin-7a-yl)methoxy)pyrido[4,3-d]pyrimidin-4-yl)(methyl)amino)pyrrolidin-1-yl)-3-(pyrrolidin-3-yl)prop-2-yn-1-one], the IC50 was 10 to 100 nM.

As to `CN(c1nc(OC[C@@]23CCCN2C[C@H](F)C3)nc2c(F)c(-c3cccc4cccc(Cl)c34)ncc12)[C@@H]1CCN(C(=O)C#CC2CCCN2)C1` (stereo partly drawn) [Example 59, 1-((R)-3-((7-(8-chloronaphthalen-1-yl)-8-fluoro-2-(((2R,7aS)-2-fluorotetrahydro-1H-pyrrolizin-7a(5H)-yl)methoxy)pyrido[4,3-d]pyrimidin-4-yl)(methyl)amino)pyrrolidin-1-yl)-3-(pyrrolidin-2-yl)prop-2-yn-1-one], the IC50 is less than 10 nM.

`C=CC(=O)N1CC(F)(CN(C)c2nc(OC[C@@]34CCCN3C[C@H](F)C4)nc3c(F)c(-c4cccc5ccc(F)c(Cl)c45)ncc23)C1` [Example 60, 1-(3-(((7-(8-chloro-7-fluoronaphthalen-1-yl)-8-fluoro-2-(((2R,7aS)-2-fluorotetrahydro-1H-pyrrolizin-7a(5H)-yl)methoxy)pyrido[4,3-d]pyrimidin-4-yl)(methyl)amino)methyl)-3-fluoroazetidin-1-yl)prop-2-en-1-one]: the IC50 was in the range of 100 to 500 nM.

Take `CN(c1nc(OCC23CCCN2CCC3)nc2c(F)c(-c3cccc4ccc(F)c(Cl)c34)ncc12)[C@@H]1CCN(C(=O)/C=C/c2nc(C(C)(C)O)no2)C1` [Example 61, (R,E)-1-(3-((7-(8-chloro-7-fluoronaphthalen-1-yl)-8-fluoro-2-((hexahydro-1H-pyrrolizin-7a-yl)methoxy)pyrido[4,3-d]pyrimidin-4-yl)(methyl)amino)pyrrolidin-1-yl)-3-(3-(2-hydroxypropan-2-yl)-1,2,4-oxadiazol-5-yl)prop-2-en-1-one]: the IC50 was 10 to 100 nM.

Regarding `Cc1nccc(/C=C/C(=O)N2CC(CN(C)c3nc(OC[C@@]45CCCN4C[C@H](F)C5)nc4c(F)c(-c5cccc6cccc(Cl)c56)ncc34)C2)n1` [Example 62, (E)-1-(3-(((7-(8-chloronaphthalen-1-yl)-8-fluoro-2-(((2R,7aS)-2-fluorotetrahydro-1H-pyrrolizin-7a(5H)-yl)methoxy)pyrido[4,3-d]pyrimidin-4-yl)(methyl)amino)methyl)azetidin-1-yl)-3-(2-methylpyrimidin-4-yl)prop-2-en-1-one], the IC50 was in the range of 10 to 100 nM.

`CN(CC1CN(C(=O)/C=C/c2ccncn2)C1)c1nc(OC[C@@]23CCCN2C[C@H](F)C3)nc2c(F)c(-c3cccc4cccc(Cl)c34)ncc12` [Example 63, (E)-1-(3-(((7-(8-chloronaphthalen-1-yl)-8-fluoro-2-(((2R,7aS)-2-fluorotetrahydro-1H-pyrrolizin-7a(5H)-yl)methoxy)pyrido[4,3-d]pyrimidin-4-yl)(methyl)amino)methyl)azetidin-1-yl)-3-(pyrimidin-4-yl)prop-2-en-1-one]: the IC50 lay in the range of 10 to 100 nM.

As for `CN(c1nc(OC[C@@]23CCCN2C[C@H](F)C3)nc2c(F)c(-c3cccc4cccc(Cl)c34)ncc12)[C@@H]1CCN(C(=O)C#CC2CNCCO2)C1` (stereo partly drawn) [Example 64, 1-((R)-3-((7-(8-chloronaphthalen-1-yl)-8-fluoro-2-(((2R,7aS)-2-fluorohexahydro-1H-pyrrolizin-7a-yl)methoxy)pyrido[4,3-d]pyrimidin-4-yl)(methyl)amino)pyrrolidin-1-yl)-3-(morpholin-2-yl)prop-2-yn-1-one], the IC50 was less than 10 nM.
